Reference: PubChem BioAssay (NCI)
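A five-concentration, 48-hour dose response in 96-well plates underlies each endpoint, interpolated linearly between surrounding concentrations. The concentration for 50% growth inhibition is given as GI50. At the TGI there is no net growth.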

Legend:
Test in all cases: NCI tumour cell line growth inhibition, 48 h
[1] = test system: HCT-116 colon
[2] = test system: HCT-15 colon
[3] = test system: UACC-62 melanoma
[4] = test system: NCI-H460 lung
[5] = test system: SF-295 CNS
[6] = test system: SK-MEL-5 melanoma
[7] = test system: NCI-H522 lung
[8] = test system: UO-31 renal
[9] = test system: SNB-19 CNS
[10] = test system: HOP-62 NSCLC
[11] = test system: ACHN renal
[12] = test system: HCC-2998 colon
[13] = test system: COLO 205 colon
[14] = test system: OVCAR-8 ovarian
[15] = test system: OVCAR-3 ovarian
[16] = test system: DU-145 prostate
[17] = test system: NCI/ADR-RES ovarian
[18] = test system: HOP-92 NSCLC
[19] = test system: MCF7 breast
[20] = test system: A549 NSCLC
[21] = test system: NCI-H23 lung
[22] = test system: K-562 leukemia
[23] = test system: U251 CNS
[24] = test system: MOLT-4 leukemia
[25] = test system: SK-OV-3 ovarian
[26] = test system: A498 renal
[27] = test system: RXF 393 renal
[28] = test system: IGROV1 ovarian
[29] = test system: CAKI-1 renal
[30] = test system: MALME-3M melanoma
[31] = test system: MDA-MB-435
[32] = test system: OVCAR-5 ovarian
[33] = test system: KM12 colon
[34] = test system: NCI-H226 lung
[35] = test system: 786-0 renal
[36] = test system: SN12C renal
[37] = test system: T-47D breast
[38] = test system: TK-10 renal
[39] = test system: PC-3 prostate
[40] = test system: SF-268 CNS
[41] = test system: OVCAR-4 ovarian
[42] = test system: RPMI-8226 leukemia
[43] = test system: M14 melanoma
[44] = test system: SK-MEL-28 melanoma
[45] = test system: CCRF-CEM leukemia
[46] = test system: LOX IMVI melanoma
[47] = test system: HS 578T breast
[48] = test system: SR leukemia
[49] = test system: SK-MEL-2 melanoma
[50] = test system: HT29 colon
[51] = test system: BT-549 breast
[52] = test system: MDA-MB-231 breast
[53] = test system: SNB-75 CNS
[54] = test system: SW-620 colon
[55] = test system: EKVX NSCLC

SMILES: O=C1C(Cl)=C(Nc2cccc(O)c2)C(=O)N1c1ccc(Cl)c(Cl)c1
- GI50 [1]: 18.4 µM
- TGI [1]: 33.9 µM
- GI50 [2]: 19.9 µM
- TGI [2]: 45.5 µM
- GI50 [3]: 27.6 µM
- TGI [3]: > 100 µM
- GI50 [4]: 19.1 µM
- TGI [4]: 50.5 µM
- GI50 [5]: 25.9 µM
- TGI [5]: 83.5 µM
- GI50 [6]: 20 µM
- TGI [6]: 64.7 µM
- GI50 [7]: 30 µM
- TGI [7]: > 100 µM
- GI50 [8]: 31.7 µM
- TGI [8]: > 100 µM
- GI50 [9]: 36 µM
- TGI [9]: > 100 µM
- GI50 [10]: 16.4 µM
- TGI [10]: 32.5 µM
- GI50 [11]: 17.3 µM
- TGI [11]: 33.3 µM
- GI50 [12]: 15 µM
- TGI [12]: 29.5 µM
- GI50 [13]: 32 µM
- TGI [13]: 89.9 µM
- GI50 [14]: 23.6 µM
- TGI [14]: 52.2 µM
- GI50 [15]: 17.9 µM
- TGI [15]: 36.4 µM
- GI50 [16]: 19.3 µM
- TGI [16]: 42.1 µM
- GI50 [17]: 22.4 µM
- TGI [17]: 52.3 µM
- GI50 [18]: 21.8 µM
- TGI [18]: 70.6 µM
- GI50 [19]: 25.1 µM
- TGI [19]: 85.1 µM
- GI50 [20]: 23.9 µM
- TGI [20]: 60.6 µM
- GI50 [21]: 15.4 µM
- TGI [21]: 31.3 µM
- GI50 [22]: 25.5 µM
- TGI [22]: > 100 µM
- GI50 [23]: 15.5 µM
- TGI [23]: 30.9 µM
- GI50 [24]: 15.1 µM
- TGI [24]: > 100 µM
- GI50 [25]: 25.5 µM
- TGI [25]: 73.3 µM
- GI50 [26]: 12.1 µM
- TGI [26]: 28.7 µM
- GI50 [27]: 14.5 µM
- TGI [27]: 42.2 µM
- GI50 [28]: 28.4 µM
- TGI [28]: > 100 µM
- GI50 [29]: 22.8 µM
- TGI [29]: 59.1 µM
- GI50 [30]: 19.7 µM
- TGI [30]: 55 µM
- GI50 [31]: 21.9 µM
- TGI [31]: 59.6 µM
- GI50 [32]: 18 µM
- TGI [32]: 35.5 µM
- GI50 [33]: 17 µM
- TGI [33]: 32.5 µM
- GI50 [34]: 19.7 µM
- TGI [34]: 46.6 µM
- GI50 [35]: 17.7 µM
- TGI [35]: 35.3 µM
- GI50 [36]: 18.1 µM
- TGI [36]: 39.4 µM
- GI50 [37]: 41 µM
- TGI [37]: > 100 µM
- GI50 [38]: 25.7 µM
- TGI [38]: 63.8 µM
- GI50 [39]: 19 µM
- TGI [39]: 49.6 µM
- GI50 [40]: 23.8 µM
- TGI [40]: 62.3 µM
- GI50 [41]: 34.4 µM
- TGI [41]: > 100 µM
- GI50 [42]: 15.9 µM
- TGI [42]: 57.7 µM
- GI50 [43]: 18.9 µM
- TGI [43]: 37.4 µM
- GI50 [44]: 40.6 µM
- TGI [44]: > 100 µM
- GI50 [45]: 25.2 µM
- TGI [45]: 74.6 µM
- GI50 [46]: 15.8 µM
- TGI [46]: 33.3 µM
- GI50 [47]: 20.5 µM
- TGI [47]: 54.3 µM
- GI50 [48]: 14.2 µM
- TGI [48]: 67.1 µM
- GI50 [49]: 54.8 µM
- TGI [49]: > 100 µM

SMILES: CC1(C)C[C@H]2C=C(C=O)[C@]34C[C@]3(C(=O)OC4O)[C@H]2C1 (stereo partly drawn)
- TGI [2]: 4.7 µM
- TGI [50]: 4.96 µM
- TGI [51]: 4.56 µM
- TGI [4]: 53.4 µM
- TGI [5]: 23.9 µM
- TGI [6]: 9.32 µM
- TGI [8]: 6.92 µM
- TGI [9]: > 100 µM
- TGI [10]: 45.1 µM
- TGI [11]: 8.07 µM
- TGI [12]: 12.3 µM
- TGI [13]: 1.44 µM
- TGI [14]: 3.67 µM
- TGI [52]: 6.47 µM
- TGI [15]: 8.47 µM
- TGI [16]: 16.5 µM
- TGI [53]: 6.87 µM
- TGI [19]: 5.54 µM
- TGI [20]: 13.1 µM
- TGI [22]: > 100 µM
- TGI [23]: 51.7 µM
- TGI [24]: > 100 µM
- TGI [25]: 50.3 µM
- TGI [28]: 9.75 µM
- TGI [29]: 5.04 µM
- TGI [54]: > 100 µM
- TGI [32]: 5.14 µM
- TGI [33]: 5.6 µM
- TGI [34]: 26.9 µM
- TGI [36]: > 100 µM
- TGI [37]: 4.63 µM
- TGI [38]: 4.53 µM
- TGI [39]: 8.74 µM
- TGI [41]: 7.86 µM
- TGI [42]: > 100 µM
- TGI [44]: 9.4 µM
- TGI [45]: > 100 µM
- TGI [47]: > 100 µM
- TGI [48]: > 100 µM
- TGI [55]: 4.34 µM
